# In patent US20220348970A1, “METHODS AND COMPOSITIONS FOR 3-HYDROXYPROPIONATE PRODUCTION” (The Regents of the University of California, priority 2017, published 2022):
# What was measured:
# [1] = target: T1, OAADC A0A0D6NFJ6_9PROT, SEQ ID NO: 166 (Acetobacter indonesiensis, UniProt A0A6N3T5V0); assay: OAADC kinetics of A0A0D6NFJ6_9PROT on oxaloacetate; type: biochemical; details: pH 7.2, 21° C.
# T1 sequence (A0A6N3T5V0 with tags, fused parts or gaps): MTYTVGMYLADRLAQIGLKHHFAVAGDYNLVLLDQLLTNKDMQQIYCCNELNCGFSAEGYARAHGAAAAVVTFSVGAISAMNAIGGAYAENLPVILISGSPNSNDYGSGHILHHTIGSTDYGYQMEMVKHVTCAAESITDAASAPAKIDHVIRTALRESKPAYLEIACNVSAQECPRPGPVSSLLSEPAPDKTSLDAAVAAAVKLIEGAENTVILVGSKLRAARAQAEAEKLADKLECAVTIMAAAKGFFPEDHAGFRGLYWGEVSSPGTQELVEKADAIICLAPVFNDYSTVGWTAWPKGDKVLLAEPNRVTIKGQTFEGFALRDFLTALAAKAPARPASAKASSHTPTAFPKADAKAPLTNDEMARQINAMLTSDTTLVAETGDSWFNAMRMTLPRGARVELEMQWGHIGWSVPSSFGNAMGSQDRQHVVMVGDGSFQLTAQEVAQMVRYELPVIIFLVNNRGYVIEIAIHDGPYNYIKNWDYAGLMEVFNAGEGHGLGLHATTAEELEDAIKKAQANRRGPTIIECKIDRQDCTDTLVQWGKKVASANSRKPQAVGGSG
# Method: All substrates were dissolved in MilliQ H2O and the pH was adjusted to 7.2 as necessary. Activity for oxaloacetate, pyruvate, and 2-ketoisovalerate was measured at a 1 mM substrate concentration. The assay was performed in a 96-well half-area plate. Each reaction contained reaction buffer (100 mM HEPES, 100 mM NaCl, 10% glycerol, pH 7.2), ADH (Sigma-Aldrich, A7011, 100 U/mL for pyruvate, 600 U/mL for oxaloacetate, and 600 U/mL for 2-ketoisovalerate), and a final concentration of 0.5 mM NADPH, 0.1 mM TPP, and 1 mM MgSO4. A range of substrate concentrations (0.1 mM-5 mM) were uSEQ to perform steady-state kinetics measurement over a period of one hour. Absorbance readings were taken at one minute intervals at 340 nm at 21° C. for 60 minutes using the Synergy H1 spectrophotometer (Biotek). Kinetic parameters (ka and Ks1) were determined by fitting initial velocity versus substrate concentration data to the Michaelis-Menten equation.
# A second round of genome mining was conducted as described in Example 1, except using the 4COK sequence as the input. Genes encoding candidate OAADCs were synthesized and expressed in E. coli for further characterization. OAADC activity was assayed as described in Example 1.
# [2] = target: T2, pyruvate decarboxylase from Gluconacetobacter diazotrophicus (4COK), SEQ ID NO: 1 (Gluconacetobacter diazotrophicus, UniProt A9H275); assay: Steady-state kinetics of 4COK decarboxylase on pyruvate and oxaloacetate (ADH/NADPH coupled, 340 nm); type: biochemical; details: pH 7.2, 21° C., 0.1 mM-5 mM substrate
# T2 construct: likely strain PAl 5 (ATCC 49037 / DSM 5601)
# T2 sequence (A9H275 1-558): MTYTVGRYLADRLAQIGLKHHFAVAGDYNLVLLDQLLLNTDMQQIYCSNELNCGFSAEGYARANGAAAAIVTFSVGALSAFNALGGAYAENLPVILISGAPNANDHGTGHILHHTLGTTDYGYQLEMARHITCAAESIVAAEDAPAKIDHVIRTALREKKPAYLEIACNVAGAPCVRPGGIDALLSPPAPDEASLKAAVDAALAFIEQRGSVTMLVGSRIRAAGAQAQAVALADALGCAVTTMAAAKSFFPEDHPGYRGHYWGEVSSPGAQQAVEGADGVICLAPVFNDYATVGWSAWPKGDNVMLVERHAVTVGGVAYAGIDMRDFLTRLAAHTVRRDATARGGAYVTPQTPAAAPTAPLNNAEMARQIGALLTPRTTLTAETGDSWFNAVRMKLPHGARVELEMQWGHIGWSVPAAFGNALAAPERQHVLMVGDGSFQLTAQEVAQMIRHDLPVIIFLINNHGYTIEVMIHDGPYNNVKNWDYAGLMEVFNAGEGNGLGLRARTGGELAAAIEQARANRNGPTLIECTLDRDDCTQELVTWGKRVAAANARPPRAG
# Method: Overnight cultures of BLR cells suspended in a 2 mL volume were transformed with a pet29b+ plasmid (encoding polypeptides of interest with a C-terminal His-tag) and grown in Terrific Broth with 50 μg/ml kanamycin. Cultures were diluted 1:1.000 in 500 ml of Terrific Broth with 1 mM MgSO4, 1% glucose and 50 μg/ml antibiotic and then grown at 37° C. for 24 hours. Cultures were pelleted down at 4,700 RPM for 10 minutes and resuspended in auto-induction media (LB broth, 1 mM MgSO4, 0.1 mM TPP, 1×NPS and 1×5052) for induction at 18° C. for 20 hours. […] Protein concentrations were determined using a Synergy H1 spectrophotometer (Biotek) by measuring absorbance at 280 nm using calculated extinction coefficients.
# All substrates were dissolved in MilliQ H2O and the pH was adjusted to 7.2 as necessary. Activity for oxaloacetate, pyruvate, and 2-ketoisovalerate was measured at a 1 mM substrate concentration. […] Absorbance readings were taken at one minute intervals at 340 nm at 21° C. for 60 minutes using the Synergy H1 spectrophotometer (Biotek). Kinetic parameters (ka and Ks1) were determined by fitting initial velocity versus substrate concentration data to the Michaelis-Menten equation. […]
structure (smiles),measurement,setting,value
O=C(O)CC(=O)C(=O)O [Oxaloacetate],Km,[1],> 20 mM
same,Km,[2],> 20 mM
